From patent publication US20240124422A1, “MUTANT PI3K-ALPHA INHIBITORS AND THEIR USE AS PHARMACEUTICALS” (Prelude Therapeutics Incorporated, priority 2022, published 2024) come the findings set out here.

Assay [1] deals with phosphorylation of AKT on Ser473 as a readout of the PI3K pathway in T-47D (heterozygous PIK3CA H1047R) cells. The assay is described as follows: PI3K pathway activation assay, pAKT Ser473 HTRF, T-47D cells. The note with it: two hours of treatment. The assay is classed as cell-based. An outline of the steps:
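pAKT Ser473 measured by HTRF in SKBR3 (PIK3CA WT) and T-47D (PIK3CA H1047R) cells, 4,000/well. Signal normalised to background and DMSO controls as percent inhibition.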
A general note: Time-resolved FRET reads energy transfer from a long-lived donor to a nearby acceptor.

Assay [2] has as its system phosphorylation of AKT on Ser473 as a readout of the PI3K pathway in SKBR3 (PIK3CA WT) cells. The assay is described as follows: PI3K pathway activation assay, pAKT Ser473 HTRF, SKBR3 cells. Format: cell-based. The note with it: two hours of treatment. As for the experimental part: The inhibitory activity of compounds was evaluated by measuring phosphorylation of AKT on Ser473 as a readout of the PI3K pathway using HTRF (CisBio catalog number: 64AKSPE). These studies were conducted in the T-47D (heterozygous PIK3CA H1047R) and SKBR3 (PIK3CA WT) cell lines. Cells were maintained in a 37° C. incubator at 5% CO2 in the following media: T-47D: RPMI 1640, ATCC© Modification (Gibco, A10491-01) supplemented with 10% v/v FBS (Gibco, 26140-079), 1% penicillin streptomycin (Gibco, 15140-122), and 7.4 ug/mL insulin (MilliporeSigma, I9278); SKBR3: McCoy's 5a (Modified) Medium (Gibco, 16600-082) supplemented with 10% v/v FBS (Gibco, 26140-079). Cells were seeded in 384-well plates at a density of 4,000 cells/well. Compounds dissolved in DMSO were added using a digital dispense (D300E, Tecan) 10-point serial dilution. After two hours of treatment, cells were lysed for thirty minutes and then incubated with detection reagents per HTRF kit material and manufacturer's instructions. Fluorescence signal was measured with a multimode plate reader (Envision 2105, Perkin Elmer). Fluorescent signal was normalized to background and DMSO controls to obtain percent inhibition/activity for each compound.

Read-outs that look alike come from different tables or passages of the source. Where only a bound is given, the exact number is not on record here.

Usually IC50 stands for the midpoint of a concentration-inhibition curve. Take `Cc1cc(C(C)Nc2ccccc2S(C)(=O)=O)c2nc(N3Cc4ccccc4C3)n(C)c(=O)c2c1` (centres unmarked) [Example 8, 2-(isoindolin-2-yl)-3,6-dimethyl-8-(1-((2-(methylsulfonyl)phenyl)amino)ethyl)quinazolin-4(3H)-one]: the IC50 was 0.5 to 10 µM in assay [1] (Homo sapiens, T47D, 2 h) and above 10 µM in assay [2] (Homo sapiens, SK-BR-3, 2 h). In the same order, the values of `Cc1cc(C(C)Nc2ccccc2C(=O)O)c2nc(N3CC4CCC3C4)n(C)c(=O)c2c1` (single isomer, unassigned) [Example 99, 2-((1-(2-(2-Azabicyclo[2.2.1]heptan-2-yl)-3,6-dimethyl-4-oxo-3,4-dihydro-quinazolin-8-yl)ethyl)amino)benzoic acid] are below 0.5 µM and above 10 µM.

As to `[2H]C([2H])([2H])c1cc(C(C)Nc2ccccc2C(=O)O)c2nc(N3CC4CC4C3)n(C)c(=O)c2c1` (single isomer, unassigned) [Example 68], the IC50 in assay [1] (Homo sapiens, T47D, 2 h) was below 0.5 µM; in assay [2] (Homo sapiens, SK-BR-3, 2 h), above 10 µM. In the case of `Cc1cc(C(C)Nc2ccccc2C(=O)O)c2nc(N3Cc4ccccc4C3)n([C@H]3C[C@H](O)C3)c(=O)c2c1` (some centres unmarked) [Example 48, 2-((1-(3-((1r,3r)-3-Hydroxycyclobutyl)-2-(isoindolin-2-yl)-6-methyl-4-oxo-3,4-dihydroquinazolin-8-yl)ethyl)amino)benzoic acid], the IC50 in assay [1] (Homo sapiens, T47D, 2 h) was below 0.5 µM; in assay [2] (Homo sapiens, SK-BR-3, 2 h), above 10 µM. Regarding `Cc1cc(C(C)Nc2ccccc2C(=O)O)c2nc(N3C[C@@H]4[C@H](C3)[C@H]4C(=O)N(C)C)n(C)c(=O)c2c1` (stereo partly drawn) [Example 90, 2-((1-(2-((1R,5S,6R)-6-(Dimethylcarbamoyl)-3-azabicyclo[3.1.0]hexan-3-yl)-3,6-dimethyl-4-oxo-3,4-dihydroquinazolin-8-yl)ethyl)amino)benzoic acid], the IC50 in assay [1] (read-out: T47D pAKT IC50) is 0.5 to 10 µM; in assay [2], above 10 µM.

As for `Cc1cc(C(C)Nc2ccc(C#N)cc2C(=O)O)c2nc(N3Cc4ccccc4C3)n(C)c(=O)c2c1` (centres unmarked) [Example 31, 5-cyano-2-((1-(2-(isoindolin-2-yl)-3,6-dimethyl-4-oxo-3,4-dihydroquinazolin-8-yl)ethyl)amino)benzoic acid], the IC50 in assay [1] (Homo sapiens, T47D, 2 h) is below 0.5 µM; in assay [2] (Homo sapiens, SK-BR-3, 2 h), above 10 µM. Take `Cc1cc(C(C)Nc2ccccc2C(=O)O)c2nc(N3CC4CC4C3)n(C)c(=O)c2c1` (single isomer, unassigned) [Example 24, 2-((1-(2-(3-azabicyclo[3.1.0]hexan-3-yl)-3,6-dimethyl-4-oxo-3,4-dihydro-quinazolin-8-yl)ethyl)amino)benzoic acid]: the IC50 in assay [1] (Homo sapiens, T47D, 2 h) was below 0.5 µM; in assay [2] (Homo sapiens, SK-BR-3, 2 h) it was above 10 µM.

For `COCCn1c(N2Cc3ccccc3C2)nc2c(C(C)Nc3ccccc3C(=O)O)cc(C)cc2c1=O` (centres unmarked) [Example 19, 2-((1-(2-(isoindolin-2-yl)-3-(2-methoxyethyl)-6-methyl-4-oxo-3,4-dihydroquinazolin-8-yl)ethyl)amino)benzoic acid], the concentration for half-maximal inhibition (IC50) is 0.5 to 10 µM in assay [1] (Homo sapiens, T47D, 2 h) and above 10 µM in assay [2] (Homo sapiens, SK-BR-3, 2 h). In the same order, the values of `Cc1cc(C(C)Nc2ccc(F)c(F)c2C(=O)O)c2nc(N3Cc4ccccc4C3)n(C)c(=O)c2c1` (centres unmarked) [Example 35, 2,3-difluoro-6-((1-(2-(isoindolin-2-yl)-3,6-dimethyl-4-oxo-3,4-dihydroquinazolin-8-yl)ethyl)amino)benzoic acid] are below 0.5 µM and above 10 µM. With `Cc1cc(C(C)Nc2cccnc2C(=O)O)c2nc(N3Cc4ccccc4C3)n(C)c(=O)c2c1` (centres unmarked) [Example 28, 3-((1-(2-(isoindolin-2-yl)-3,6-dimethyl-4-oxo-3,4-dihydroquinazolin-8-yl)ethyl)amino)picolinic acid], the IC50 in assay [1] (Homo sapiens, T47D, 2 h) is 0.5 to 10 µM; in assay [2] (Homo sapiens, SK-BR-3, 2 h), above 10 µM. In the same order, the values of `CSc1nc2c(C(C)Nc3ccccc3C(=O)O)cc(C)cc2c(=O)n1C` (centres unmarked) [Example 43, 2-[1-(3,6-dimethyl-2-methylsulfanyl-4-oxoquinazolin-8-yl)ethylamino]benzoic acid] are 0.5 to 10 µM and above 10 µM.

Take `Cc1cc(C(C)Nc2ccccc2C(=O)O)c2nc(N3Cc4ccccc4C3)n(C3CC(CO)(CO)C3)c(=O)c2c1` (centres unmarked) [Example 98, 2-((1-(3-(3,3-Bis(hydroxymethyl)cyclobutyl)-2-(isoindolin-2-yl)-6-methyl-4-oxo-3,4-dihydroquinazolin-8-yl)ethyl)amino)benzoic acid]: the IC50 is below 0.5 µM in assay [1] (Homo sapiens, T47D, 2 h) and above 10 µM in assay [2] (Homo sapiens, SK-BR-3, 2 h). On the same counts, the results for `Cc1cc(C(C)Nc2ccccc2C(=O)O)c2nc(N3Cc4ccc(F)cc4C3)n(C)c(=O)c2c1` (centres unmarked) [Example 2, 2-((1-(2-(5-fluoroisoindolin-2-yl)-3,6-dimethyl-4-oxo-3,4-dihydroquinazolin-8-yl)ethyl)amino)benzoic acid] are below 0.5 µM and above 10 µM. On the same counts, the results for `CNS(=O)(=O)c1ccccc1NC(C)c1cc(C)cc2c(=O)n(C)c(N3Cc4ccccc4C3)nc12` (centres unmarked) [Example 7, 2-((1-(2-(isoindolin-2-yl)-3,6-dimethyl-4-oxo-3,4-dihydroquinazolin-8-yl)ethyl)amino)-N-methylbenzenesulfonamide] are 0.5 to 10 µM and above 10 µM. Turning to `COc1nc2c(C(C)Nc3ccccc3C(=O)O)cc(C)cc2c(=O)n1C` (centres unmarked) [Example 41, 2-[1-(2-methoxy-3,6-dimethyl-4-oxoquinazolin-8-yl)ethylamino]benzoic acid], the IC50 in assay [1] (Homo sapiens, T47D, 2 h) was 0.5 to 10 µM; in assay [2] (Homo sapiens, SK-BR-3, 2 h) it was above 10 µM. In the same order, the values of `CC(Nc1ccccc1C(=O)O)c1cc(Br)cc2c(=O)n(C)c(N3Cc4ccccc4C3)nc12` (centres unmarked) [Example 70, 2-((1-(6-Bromo-2-(isoindolin-2-yl)-3-methyl-4-oxo-3,4-dihydroquinazolin-8-yl)ethyl)amino)benzoic acid] are below 0.5 µM and above 10 µM. On the same counts, the results for `Cc1cc(C(C)Nc2ccccc2C(=O)O)c2nc(N3Cc4ccccc4C3)[nH]c(=O)c2c1` (centres unmarked) [Example 22, 2-((1-(2-(isoindolin-2-yl)-6-methyl-4-oxo-3,4-dihydroquinazolin-8-yl)ethyl)amino)benzoic acid] are below 0.5 µM and above 10 µM. In the case of `Cc1cc(C(C)Nc2ccc(F)c(O)c2F)c2nc(N3Cc4ccccc4C3)n(C)c(=O)c2c1` (centres unmarked) [Example 11, 8-(1-((2,4-difluoro-3-hydroxyphenyl)amino)ethyl)-2-(isoindolin-2-yl)-3,6-dimethylquinazolin-4(3H)-one], the IC50 in assay [1] (Homo sapiens, T47D, 2 h) was 0.5 to 10 µM; in assay [2] (Homo sapiens, SK-BR-3, 2 h) it was above 10 µM.

In the case of `Cc1cc(C(C)Nc2ccccc2C(=O)O)c2nc(N3CCCCCC3)n(C)c(=O)c2c1` (centres unmarked) [Example 55, 2-((1-(2-(azepan-1-yl)-3,6-dimethyl-4-oxo-3,4-dihydroquinazolin-8-yl)ethyl)amino)benzoic acid], the IC50 in assay [1] (Homo sapiens, T47D, 2 h) was below 0.5 µM; in assay [2] (Homo sapiens, SK-BR-3, 2 h), above 10 µM. With `Cc1cc(C(C)Nc2cn(C)nc2C(=O)O)c2nc(N3Cc4ccccc4C3)n(C)c(=O)c2c1` (centres unmarked) [Example 34, 4-((1-(2-(isoindolin-2-yl)-3,6-dimethyl-4-oxo-3,4-dihydroquinazolin-8-yl)ethyl)amino)-1-methyl-1H-pyrazole-3-carboxylic acid], the IC50 is 0.5 to 10 µM in assay [1] (Homo sapiens, T47D, 2 h) and above 10 µM in assay [2] (Homo sapiens, SK-BR-3, 2 h). In the same order, the values of `Cc1cc(C(C)Nc2ccccc2C(=O)O)c2nc(N3Cc4ccccc4C3)n(C(C)C)c(=O)c2c1` (single isomer, unassigned) [Example 27, 2-((1-(2-(isoindolin-2-yl)-3-isopropyl-6-methyl-4-oxo-3,4-dihydroquinazolin-8-yl)ethyl)amino)benzoic acid] are below 0.5 µM and above 10 µM. In the same order, the values of `Cc1cc(C(C)Nc2cc(C#N)ccc2C(=O)O)c2nc(N3CC4CC4C3)n(C)c(=O)c2c1` (centres unmarked) [Example 23, 2-((1-(2-(3-azabicyclo[3.1.0]hexan-3-yl)-3,6-dimethyl-4-oxo-3,4-dihydro-quinazolin-8-yl)ethyl)amino)-4-cyanobenzoic acid] are 0.5 to 10 µM and above 10 µM. `CSc1ncc(NC(C)c2cc(C)cc3c(=O)n(C)c(N4CC5CC5C4)nc23)c(C(=O)O)n1` (centres unmarked) [Example 118, 5-((1-(2-(3-Azabicyclo[3.1.0]hexan-3-yl)-3,6-dimethyl-4-oxo-3,4-dihydroquinazolin-8-yl)ethyl)amino)-2-(methylthio)pyrimidine-4-carboxylic acid]: the IC50 in assay [1] (Homo sapiens, T47D, 2 h) fell in the range of 0.5 to 10 µM. Same read-out and setting: next, `CC(Nc1ccccc1C(=O)O)c1cc(C(F)F)cc2c(=O)n(C)c(N3CC4CC4C3)nc12` (centres unmarked) [Example 79, 2-((1-(2-(3-Azabicyclo[3.1.0]hexan-3-yl)-6-(difluoromethyl)-3-methyl-4-oxo-3,4-dihydroquinazolin-8-yl)ethyl)amino)benzoic acid]: 0.5 to 10 µM. Take `Cc1cc(C(C)Nc2ccccc2C(=O)O)c2nc(N3CCC(C)(C)CC3)n(C)c(=O)c2c1` (centres unmarked) [Example 3, 2-((1-(2-(4,4-dimethylpiperidin-1-yl)-3,6-dimethyl-4-oxo-3,4-dihydroquinazolin-8-yl)ethyl)amino)benzoic acid]: the IC50 in assay [1] (read-out: T47D pAKT IC50) fell in the range of 0.5 to 10 µM.
